# Test results published in US6841548B2, “Pharmaceutical preparations containing estra-1,3,5(10)-triene derivatives” (Schering AG, priority 1994, dated 2005).
# Experiments:
# [1] = system: ovariectomated rats; test: Oral estrogenic effects: uterus weights in ovariectomated rats; assay type: in vivo, rat
# Description: (§1) The laboratory animals, adult female rats (breeder: HSD/WIN:WU) were ovariectomated on day 14. Treatment started two weeks later by a single oral application per day of the respective test substance. The dosages given for esters refer to the steroid portion of the substances. The tests were made in three groups (A, B, C) at various points in time. This is why there is a deviation in control group values. The tests of series A, B, and C can therefore be compared among each other if the values for the respective control groups are taken into account.
# (§2) The procedure of allocating animals to groups was randomized. The experiment was carried out as a block test. The animals were weighed at the beginning and at the end of the experiment.
# (§3) The start of treatment was defined as day 1 (=d1), treatment was finished on day 7 (=d7); the animals were killed on day 8, various organs (uteri, adrenal glands, liver) were removed, weighed and deep-frozen (−196° C.) for further examination.
# [2] = system: ovariectomated rats; test: Oral estrogenic effects: weights of adrenal glands in ovariectomated rats; assay type: in vivo, rat
# Description: as §1, §2, §3
# [3] = system: ovariectomated rats; test: Oral estrogen treatment: serum IGF1 (somatomedin C), RIA; assay type: in vivo, rat; set-up: unit not given here; conditions: Experiment A
# Description: as §1, §2, §3
# (§4) Blood was taken from the retrobulbar plexus under ether anaesthesia prior to treatment (d0), and on (d4) and (d8). IGF1, angiotensin I, cholesterol and HDL cholesterol were determined in the serum obtained.
# IGF1: RIA by bioMérieux Co.;
# [4] = system: ovariectomated rats; test: Hepatic parameters: serum angiotensin I, modified RIA for renin activity; assay type: in vivo, rat; set-up: Angiotensin I: unit not given here; conditions: for Angiotensin I: Experiment A
# Description: as §1, §2, §3, §4
# angiotensin: modified RIA for renin activity by Sorin Co.
# [5] = system: ovariectomated rats; test: Hepatic parameters: total cholesterol levels in serum, enzymatic test; assay type: in vivo, rat; conditions: for Total cholesterol levels (mean value ± standard deviation): Experiment A
# Method: The laboratory animals, adult female rats (breeder: HSD/WIN:WU) were ovariectomated on day 14. Treatment started two weeks later by a single oral application per day of the respective test substance. The dosages given for esters refer to the steroid portion of the substances. The tests were made in three groups (A, B, C) at various points in time.
# as §2, §3, §4
# (§5) cholesterol/HDL: enzymatic tests, photometric determination, reagents by Dr Bruno Lange GmbH.
# [6] = system: ovariectomated rats; test: Hepatic parameters: HDL cholesterol levels in serum, enzymatic test; assay type: in vivo, rat; conditions: Experiment A
# Description: as §1, §2, §3, §4, §5
# [7] = Experiment B, 10 μg/animal/day p.o. d1-d7
# [8] = Experiment A, 0.1 μg/animal/day p.o. d1-d7
# [9] = Experiment A, 1 μg/animal/day p.o. d1-d7
# [10] = Experiment A, 10 μg/animal/day p.o. d1-d7
# [11] = Experiment A, 100 μg/animal/day p.o. d1-d7
# [12] = day 4, 0.1 μg/animal/day p.o. d1-d7
# [13] = day 4, 1 μg/animal/day p.o. d1-d7
# [14] = day 4, 10 μg/animal/day p.o. d1-d7
# [15] = day 4, 100 μg/animal/day p.o. d1-d7
# [16] = day 8, 0.1 μg/animal/day p.o. d1-d7
# [17] = day 8, 1 μg/animal/day p.o. d1-d7
# [18] = day 8, 10 μg/animal/day p.o. d1-d7
# [19] = day 8, 100 μg/animal/day p.o. d1-d7
# [20] = Experiment C, 10 μg/animal/day p.o. d1-d7
smiles,measurement,setting,value
"C[C@]12CC[C@@H]3c4ccc(O)cc4CC[C@H]3[C@@H]1CCC2=O [Example E1, estrone]",Uterus weights (mean value),[1]; [7],170.63 mg
same,Weights of adrenal glands (mean value),[2]; [7],49.8 mg
"CCN(CC)S(=O)(=O)Oc1ccc2c(c1)CC[C@@H]1[C@@H]2CC[C@]2(C)C(=O)CC[C@@H]12 [J 804, Estra-1,3,5(10)-trien-17-on-3-yl N,N-diethyl-sulfamate]",Uterus weights (mean value),[1]; [7],166.0 mg
same,Weights of adrenal glands (mean value),[2]; [7],53.9 mg
"CCN(CC)S(=O)(=O)Oc1ccc2c(c1)CC[C@@H]1[C@@H]2CC[C@]2(C)[C@@H](O)C[C@@H]3C[C@]312 [J 983, 17β-Hydroxy-14α,15α-methylen-estra-1,3,5(10)-trien-3-yl N,N-diethyl-sulfamate]",Uterus weights (mean value),[1]; [7],348.6 mg
same,Weights of adrenal glands (mean value),[2]; [7],53.9 mg
"C#C[C@]1(O)CC[C@H]2[C@@H]3CCc4cc(OS(=O)(=O)N(CC)CC)ccc4[C@H]3CC[C@@]21C [J 271, 17β-Hydroxy-19-nor-17α-pregna-1,3,5(10)-triene-20-in-3-yl N,N-diethyl-sulfamate]",Uterus weights (mean value),[1]; [8],144.2 mg
same,Uterus weights (mean value),[1]; [9],289.9 mg
same,Uterus weights (mean value),[1]; [10],605.1 mg
same,Uterus weights (mean value),[1]; [11],563.6 mg
same,Uterus weights (mean value),[1]; [7],540.8 mg
same,Oral dose at which the effect on uterus growth has reached a plateau,[1]; oral,0.01 mg/animal/day
same,"Effects on uterus growth, comparison in words","[1]; oral, versus EE and estradiol",clear superiority to EE and great superiority to estradiol
same,Weights of adrenal glands (mean value),[2]; [8],57.1 mg
same,Weights of adrenal glands (mean value),[2]; [9],57.4 mg
same,Weights of adrenal glands (mean value),[2]; [10],63.1 mg
same,Weights of adrenal glands (mean value),[2]; [11],66.5 mg
same,Weights of adrenal glands (mean value),[2]; [7],57.9 mg
same,IGF1 (= somatomedin C),"[3]; 100 μg/animal/day p.o. d1-d7, d 0 (prior to treatment)",826.4 ± 96.7
same,IGF1 (= somatomedin C),"[3]; 100 μg/animal/day p.o. d1-d7, d 4",593.7 ± 57.0
same,IGF1 (= somatomedin C),"[3]; 100 μg/animal/day p.o. d1-d7, d 8",351.5 ± 32.6
same,Angiotensin I,[4]; [12],380.8 ± 35.8
same,Angiotensin I,[4]; [13],383.8 ± 47.1
same,Angiotensin I,[4]; [14],435.2 ± 53.8
same,Angiotensin I,[4]; [15],734.0 ± 75.7
same,Angiotensin I,[4]; [16],462.2 ± 71.3
same,Angiotensin I,[4]; [17],425.9 ± 43.9
same,Angiotensin I,[4]; [18],373.4 ± 42.3
same,Angiotensin I,[4]; [19],668.2 ± 68.6
same,"Effect on angiotensin I (AI) values, in words",[4]; dose of 10 μg/day,no clear effect on AI
same,"Effect on angiotensin I (AI) values, in words",[4]; dose of 100 μg/day,increases in AI values but these are significantly lower than those observed under the influence of EE or J 824
same,"Influence on the angiotensin I level, summary in words",[4]; dose-action relationships on days 4 and 8,clearly below those for EE
same,Total cholesterol levels (mean value ± standard deviation),[5]; [12],96.0 ± 15.0 mg/dL
same,Total cholesterol levels (mean value ± standard deviation),[5]; [13],108.5 ± 10.3 mg/dL
same,Total cholesterol levels (mean value ± standard deviation),[5]; [14],92.4 ± 12.1 mg/dL
same,Total cholesterol levels (mean value ± standard deviation),[5]; [15],24.5 ± 14.4 mg/dL
same,Total cholesterol levels (mean value ± standard deviation),[5]; [16],91.1 ± 18.3 mg/dL
same,Total cholesterol levels (mean value ± standard deviation),[5]; [17],101.4 ± 6.3 mg/dL
same,Total cholesterol levels (mean value ± standard deviation),[5]; [18],81.9 ± 12.6 mg/dL
same,Total cholesterol levels (mean value ± standard deviation),[5]; [19],18.6 ± 8.3 mg/dL
same,"Drop in total and HDL cholesterol levels in the blood, in words","[5]; highest dose, versus EE",still recognizably lower than that caused by EE
same,"Effect on cholesterol levels in the blood (total and HDL), in words",[5]; up to 10 μg,did not reduce cholesterol levels in the blood
same,HDL cholesterol levels (mean value ± standard deviation),[6]; [12],57.6 ± 6.5 mg/dL
same,HDL cholesterol levels (mean value ± standard deviation),[6]; [13],57.1 ± 7.1 mg/dL
same,HDL cholesterol levels (mean value ± standard deviation),[6]; [14],54.6 ± 5.7 mg/dL
same,HDL cholesterol levels (mean value ± standard deviation),[6]; [15],13.2 ± 14.0 mg/dL
same,HDL cholesterol levels (mean value ± standard deviation),[6]; [16],57.3 ± 6.0 mg/dL
same,HDL cholesterol levels (mean value ± standard deviation),[6]; [17],59.6 ± 6.8 mg/dL
same,HDL cholesterol levels (mean value ± standard deviation),[6]; [18],49.9 ± 6.0 mg/dL
same,HDL cholesterol levels (mean value ± standard deviation),[6]; [19],10.7 ± 8.2 mg/dL
"C#CC1(O)CCC2C3CCc4cc(OS(=O)(=O)N(C)C)ccc4C3CCC21C (stereo not drawn) [J 665, 17β-Hydroxy-19-nor-17α-pregna-1,3,5(10)-trien-20-in-3-yl N,N-dimethyl-sulfamate]",Uterus weights (mean value),[1]; [7],639.48 mg
same,Weights of adrenal glands (mean value),[2]; [7],58.0 mg
"CCN(CC)S(=O)(=O)Oc1ccc2c(c1)CC[C@@H]1[C@@H]2CC[C@]2(C)[C@@H](O)[C@H](O)C[C@@H]12 [J 984, 16α,17β-Dihydroxy-estra-1,3,5(10)-trien-3-yl N,N-diethyl-sulfamate]",Uterus weights (mean value),[1]; [20],245.63 mg
same,Weights of adrenal glands (mean value),[2]; [20],59.3 mg
same,melting point,,121 to 124 °C
